In ChEMBL document CHEMBL4765276, “Synthesis of multimeric pyrrolidine iminosugar inhibitors of human β-glucocerebrosidase and α-galactosidase A: First example of a multivalent enzyme activity enhancer for Fabry disease” (Eur J Med Chem, 2020):

Legend:
Alpha-galactosidase A = biological target: T1, Alpha-galactosidase A (Homo sapiens, UniProt P06280); experiment: Inhibition of human recombinant lysosomal alpha-GalA using 4-methylumbelliferyl-[…] as substrate preincubated for 45 mins followed by substrate addition and measured after 30 mins by fluorescence spectrophotometric assay
T1 sequence (P06280 whole entry): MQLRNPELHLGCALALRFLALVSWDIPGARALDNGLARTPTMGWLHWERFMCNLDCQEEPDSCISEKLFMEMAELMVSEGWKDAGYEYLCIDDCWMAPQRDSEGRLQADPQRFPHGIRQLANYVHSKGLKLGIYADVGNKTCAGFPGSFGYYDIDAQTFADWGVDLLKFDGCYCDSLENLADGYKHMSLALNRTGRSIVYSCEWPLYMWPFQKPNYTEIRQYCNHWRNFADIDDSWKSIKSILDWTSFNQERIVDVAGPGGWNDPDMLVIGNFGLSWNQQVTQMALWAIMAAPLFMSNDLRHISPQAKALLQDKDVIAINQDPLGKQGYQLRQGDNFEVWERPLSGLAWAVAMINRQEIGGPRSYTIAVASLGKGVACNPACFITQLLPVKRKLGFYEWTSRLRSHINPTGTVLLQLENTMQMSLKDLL

[1] = biological target: T2, Lysosomal acid glucosylceramidase (Homo sapiens) (UniProt P04062); experiment: Inhibition of human recombinant lysosomal GCase at 1 mM using 4-methylumbelliferyl-beta-D-glucopyranoside as substrate preincubated for 45 mins followed by substrate addition and measured after 30 mins by fluorescence spectrophotometric assay relative to control; settings: time 75.0 min
T2 sequence (whole entry): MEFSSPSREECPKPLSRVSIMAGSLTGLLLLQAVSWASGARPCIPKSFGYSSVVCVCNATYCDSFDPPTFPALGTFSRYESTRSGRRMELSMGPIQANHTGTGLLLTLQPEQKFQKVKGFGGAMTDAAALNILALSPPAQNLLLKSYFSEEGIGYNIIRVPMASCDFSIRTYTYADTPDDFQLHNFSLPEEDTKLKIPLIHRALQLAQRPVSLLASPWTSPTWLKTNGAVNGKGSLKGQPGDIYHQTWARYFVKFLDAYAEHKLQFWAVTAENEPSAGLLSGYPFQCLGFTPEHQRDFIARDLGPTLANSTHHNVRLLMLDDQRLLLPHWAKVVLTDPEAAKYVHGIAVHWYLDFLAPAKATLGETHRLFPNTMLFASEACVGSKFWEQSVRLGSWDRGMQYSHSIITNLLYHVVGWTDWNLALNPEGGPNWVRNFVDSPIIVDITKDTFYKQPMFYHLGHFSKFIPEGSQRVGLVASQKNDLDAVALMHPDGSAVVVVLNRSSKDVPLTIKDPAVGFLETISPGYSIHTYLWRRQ

[2] = biological target: T3, Alpha-galactosidase A (Homo sapiens) (UniProt P06280); experiment: Inhibition of human recombinant lysosomal alpha-GalA at 1 mM using 4-methylumbelliferyl-[…] as substrate preincubated for 45 mins followed by substrate addition and measured after 30 mins by fluorescence spectrophotometric assay relative to control; settings: time 75.0 min
T3 sequence (whole entry): T1 sequence (P06280 whole entry)

SMILES | IC50 (Alpha-galactosidase A) | inhibition [1] | inhibition [2]
NC(COCc1cn(CCCc2cn(C[C@H]3NC[C@@H](O)[C@H]3O)nn2)nn1)(COCc1cn(CCCc2cn(C[C@H]3NC[C@@H](O)[C@H]3O)nn2)nn1)COCc1cn(CCCc2cn(C[C@H]3NC[C@@H](O)[C@H]3O)nn2)nn1 | 309 µM | < 50% | –
O[C@@H]1[C@H](O)CN[C@@H]1Cn1cc(CCCn2cc(COCC(COCc3cn(CCCc4cn(C[C@H]5NC[C@@H](O)[C@H]5O)nn4)nn3)(COCc3cn(CCCc4cn(C[C@H]5NC[C@@H](O)[C@H]5O)nn4)nn3)COCc3cn(CCCc4cn(C[C@H]5NC[C@@H](O)[C@H]5O)nn4)nn3)nn2)nn1 | 142 µM | < 50% | –
O=C(CCCCC(=O)NC(COCc1cn(C[C@@H]2NC[C@@H](O)[C@H]2O)nn1)(COCc1cn(C[C@@H]2NC[C@@H](O)[C@H]2O)nn1)COCc1cn(C[C@@H]2NC[C@@H](O)[C@H]2O)nn1)NC(COCc1cn(C[C@@H]2NC[C@@H](O)[C@H]2O)nn1)(COCc1cn(C[C@@H]2NC[C@@H](O)[C@H]2O)nn1)COCc1cn(C[C@@H]2NC[C@@H](O)[C@H]2O)nn1 | – | < 50% | < 50%
O=C(NC(COCc1cn(C[C@@H]2NC[C@@H](O)[C@H]2O)nn1)(COCc1cn(C[C@@H]2NC[C@@H](O)[C@H]2O)nn1)COCc1cn(C[C@@H]2NC[C@@H](O)[C@H]2O)nn1)c1cc(C(=O)NC(COCc2cn(C[C@@H]3NC[C@@H](O)[C@H]3O)nn2)(COCc2cn(C[C@@H]3NC[C@@H](O)[C@H]3O)nn2)COCc2cn(C[C@@H]3NC[C@@H](O)[C@H]3O)nn2)cc(C(=O)NC(COCc2cn(C[C@@H]3NC[C@@H](O)[C@H]3O)nn2)(COCc2cn(C[C@@H]3NC[C@@H](O)[C@H]3O)nn2)COCc2cn(C[C@@H]3NC[C@@H](O)[C@H]3O)nn2)c1 | – | < 50% | < 50%
O=C(NC(COCc1cn(C[C@H]2NC[C@@H](O)[C@H]2O)nn1)(COCc1cn(C[C@H]2NC[C@@H](O)[C@H]2O)nn1)COCc1cn(C[C@H]2NC[C@@H](O)[C@H]2O)nn1)c1cc(C(=O)NC(COCc2cn(C[C@H]3NC[C@@H](O)[C@H]3O)nn2)(COCc2cn(C[C@H]3NC[C@@H](O)[C@H]3O)nn2)COCc2cn(C[C@H]3NC[C@@H](O)[C@H]3O)nn2)cc(C(=O)NC(COCc2cn(C[C@H]3NC[C@@H](O)[C@H]3O)nn2)(COCc2cn(C[C@H]3NC[C@@H](O)[C@H]3O)nn2)COCc2cn(C[C@H]3NC[C@@H](O)[C@H]3O)nn2)c1 | 286 µM | < 50% | –
O=C(NC(COCc1cn(CCCc2cn(C[C@@H]3NC[C@@H](O)[C@H]3O)nn2)nn1)(COCc1cn(CCCc2cn(C[C@@H]3NC[C@@H](O)[C@H]3O)nn2)nn1)COCc1cn(CCCc2cn(C[C@@H]3NC[C@@H](O)[C@H]3O)nn2)nn1)c1cc(C(=O)NC(COCc2cn(CCCc3cn(C[C@@H]4NC[C@@H](O)[C@H]4O)nn3)nn2)(COCc2cn(CCCc3cn(C[C@@H]4NC[C@@H](O)[C@H]4O)nn3)nn2)COCc2cn(CCCc3cn(C[C@@H]4NC[C@@H](O)[C@H]4O)nn3)nn2)cc(C(=O)NC(COCc2cn(CCCc3cn(C[C@@H]4NC[C@@H](O)[C@H]4O)nn3)nn2)(COCc2cn(CCCc3cn(C[C@@H]4NC[C@@H](O)[C@H]4O)nn3)nn2)COCc2cn(CCCc3cn(C[C@@H]4NC[C@@H](O)[C@H]4O)nn3)nn2)c1 | – | < 50% | < 50%

Other lines, results leading:

IC50 (Alpha-galactosidase A) | inhibition [1] | inhibition [2] | SMILES
– | < 50% | < 50% | NC(COCc1cn(C[C@H]2NC[C@@H](O)[C@H]2O)nn1)(COCc1cn(C[C@H]2NC[C@@H](O)[C@H]2O)nn1)COCc1cn(C[C@H]2NC[C@@H](O)[C@H]2O)nn1
– | < 50% | < 50% | CCCc1cn(C[C@H]2NC[C@@H](O)[C@H]2O)nn1
– | < 50% | < 50% | COCc1cn(C[C@H]2NC[C@@H](O)[C@H]2O)nn1
– | < 50% | < 50% | COCc1cn(C[C@@H]2NC[C@@H](O)[C@H]2O)nn1
– | < 50% | < 50% | NC(COCc1cn(C[C@@H]2NC[C@@H](O)[C@H]2O)nn1)(COCc1cn(C[C@@H]2NC[C@@H](O)[C@H]2O)nn1)COCc1cn(C[C@@H]2NC[C@@H](O)[C@H]2O)nn1
